The source of these data is patent US10016438B2, “Bicyclic heterocycles as FGFR4 inhibitors” (Incyte Corporation, priority 2015, dated 2018).

For the experiment, the target named is FGFR4 (Homo sapiens (Human), UniProt P22455). The experiment can be described thus: FGFR Enzymatic Assay (FRET peptide phosphorylation), FGFR4. The following applies: IC50 ratio showing FGFR4 selectivity.
[1] abbreviates: pre-incubated for 5 to 10 minutes.

A value given as a limit tells only on which side of the number the result lay.

FGFR4, sequence (P22455 22-802): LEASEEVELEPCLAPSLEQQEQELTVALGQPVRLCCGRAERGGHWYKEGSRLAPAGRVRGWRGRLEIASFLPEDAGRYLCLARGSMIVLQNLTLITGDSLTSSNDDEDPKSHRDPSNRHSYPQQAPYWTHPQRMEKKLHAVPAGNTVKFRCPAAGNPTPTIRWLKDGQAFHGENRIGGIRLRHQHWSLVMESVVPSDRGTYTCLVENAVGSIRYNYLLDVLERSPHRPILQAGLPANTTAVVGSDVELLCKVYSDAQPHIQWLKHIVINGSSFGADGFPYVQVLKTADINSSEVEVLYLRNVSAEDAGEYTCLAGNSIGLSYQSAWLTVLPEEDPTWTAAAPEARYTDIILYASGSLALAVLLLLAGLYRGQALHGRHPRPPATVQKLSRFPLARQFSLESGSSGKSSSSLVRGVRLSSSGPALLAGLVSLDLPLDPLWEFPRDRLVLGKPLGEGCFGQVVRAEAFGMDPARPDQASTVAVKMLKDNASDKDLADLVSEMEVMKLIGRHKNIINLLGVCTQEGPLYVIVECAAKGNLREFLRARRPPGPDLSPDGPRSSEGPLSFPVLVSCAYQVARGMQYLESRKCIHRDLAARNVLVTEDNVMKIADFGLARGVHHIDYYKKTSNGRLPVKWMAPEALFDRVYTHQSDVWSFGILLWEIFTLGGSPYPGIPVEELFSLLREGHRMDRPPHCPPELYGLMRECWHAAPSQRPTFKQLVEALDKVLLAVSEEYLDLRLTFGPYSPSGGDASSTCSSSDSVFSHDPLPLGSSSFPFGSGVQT
Text: The enzymes were purchased from Millipore or Invitrogen.
GraphPad prism3 was used to analyze the data. The IC50 values were derived by fitting the data to the equation for a sigmoidal dose-response with a variable slope. Y=Bottom+(Top−Bottom)/(1+10^((Log IC50−X)*HillSlope)) where X is the logarithm of concentration and Y is the response.

Consider `C=CC(=O)Nc1ccc(C)c(-c2cc3c(cn2)CN(c2c(F)c(OC)cc(OC)c2F)C(=O)C32CC2)c1` [Example 2, N-(3-(2′-(2,6-difluoro-3,5-dimethoxyphenyl)-3′-oxo-2′,3′-dihydro-1′H-spiro[cyclopropane-1,4′-[2,7]naphthyridine]-6′-yl)-4-methylphenyl)acrylamide], for which, under setting [1], the FGFR1/FGFR4 is recorded as above 100, the FGFR2/FGFR4 is given as above 100 and the FGFR3/FGFR4 is given as above 100. Besides, for the setting “pre-incubated for 4 hours”, the FGFR1/FGFR4 is listed as above 100, the FGFR2/FGFR4 is above 100 and the FGFR3/FGFR4 is above 100.
For `C=CC(=O)Nc1ccc(C#N)c(-c2cc3c(cn2)CN(c2c(F)c(OC)cc(OC)c2F)C(=O)C32CC2)c1` [Example 5, N-(4-cyano-3-(2′-(2,6-difluoro-3,5-dimethoxyphenyl)-3′-oxo-2′,3′-dihydro-1′H-spiro[cyclopropane-1,4′-[2,7]naphthyridine]-6′-yl)phenyl)acrylamide], under setting [1], the FGFR1/FGFR4 is above 100, the FGFR2/FGFR4 is above 100 and the FGFR3/FGFR4 is recorded as above 100. For the setting “pre-incubated for 4 hours”, the FGFR1/FGFR4 is above 100, the FGFR2/FGFR4 was above 100 and the FGFR3/FGFR4 is on record as above 100.
On to `C=CC(=O)Nc1cc(-c2cc3c(cn2)CN(c2c(F)c(OC)cc(OC)c2F)C(=O)C32CC2)c(C)cc1F` [Example 6, N-(5-(2′-(2,6-difluoro-3,5-dimethoxyphenyl)-3′-oxo-2′,3′-dihydro-1′H-spiro[cyclopropane-1,4′-[2,7]naphthyridine]-6′-yl)-2-fluoro-4-methylphenyl)acrylamide], for which, under setting [1], the FGFR1/FGFR4 was above 100, the FGFR2/FGFR4 was above 100 and the FGFR3/FGFR4 was above 100. Further, where the note is “pre-incubated for 4 hours”, the FGFR1/FGFR4 is recorded as above 100, the FGFR2/FGFR4 is above 100 and the FGFR3/FGFR4 is listed as above 100.
For the molecule `C=CC(=O)Nc1cnc(C)c(-c2cc3c(cn2)CN(c2c(F)c(OC)cc(OC)c2F)C(=O)C32CC2)c1` [Example 7, N-(5-(2′-(2,6-difluoro-3,5-dimethoxyphenyl)-3′-oxo-2′,3′-dihydro-1′H-spiro[cyclopropane-1,4′-[2,7]naphthyridine]-6′-yl)-6-methylpyridin-3-yl)acrylamide], under setting [1], the FGFR1/FGFR4 is above 100, the FGFR2/FGFR4 is above 100 and the FGFR3/FGFR4 was above 100. Further, where the note is “pre-incubated for 4 hours”, the FGFR1/FGFR4 was above 100, the FGFR2/FGFR4 is above 100 and the FGFR3/FGFR4 is above 100.
On to `C=CC(=O)N1CCCC(c2cc3c(cn2)CN(c2c(F)c(OC)cc(OC)c2F)C(=O)C32CC2)C1` (stereo not drawn) [Example 8, 6′-(1-acryloylpiperidin-3-yl)-2′-(2,6-difluoro-3,5-dimethoxyphenyl)-1′H-spiro[cyclopropane-1,4′-[2,7]naphthyridin]-3′(2′H)-one], for which, under setting [1], the FGFR1/FGFR4 is on record as above 5, the FGFR2/FGFR4 is above 1 and the FGFR3/FGFR4 was above 1. Also, for the setting “pre-incubated for 4 hours”, the FGFR1/FGFR4 is listed as above 10, the FGFR2/FGFR4 is listed as above 2 and the FGFR3/FGFR4 is above 2.
`C=CC(=O)Nc1cc(-c2cc3c(cn2)CN(c2c(F)c(OC)cc(OC)c2F)C(=O)C32CC2)cc(N2CCOCC2)c1` [Example 10, N-{3-[2′-(2,6-difluoro-3,5-dimethoxyphenyl)-3′-oxo-2′,3′-dihydro-1′H-spiro[cyclopropane-1,4′-[2,7]naphthyridin]-6′-yl]-5-morpholin-4-ylphenyl}acrylamide]: under setting [1], the FGFR1/FGFR4 was above 100, the FGFR2/FGFR4 is listed as above 100 and the FGFR3/FGFR4 is above 100. Further, for the setting “pre-incubated for 4 hours”, the FGFR1/FGFR4 is above 100, the FGFR2/FGFR4 is recorded as above 100 and the FGFR3/FGFR4 is above 100.
In the case of `C=CC(=O)Nc1cc(CN2CCOCC2)cc(-c2cc3c(cn2)CN(c2c(F)c(OC)cc(OC)c2F)C(=O)C32CC2)c1` [Example 11, N-[3-[2′-(2,6-difluoro-3,5-dimethoxyphenyl)-3′-oxo-2′,3′-dihydro-1′H-spiro[cyclopropane-1,4′-[2,7]naphthyridin]-6′-yl]-5-(morpholin-4-ylmethyl)phenyl]acrylamide], under setting [1], the FGFR1/FGFR4 is recorded as above 100, the FGFR2/FGFR4 is on record as above 100 and the FGFR3/FGFR4 is listed as above 100. Also, under “pre-incubated for 4 hours”, the FGFR1/FGFR4 is above 100, the FGFR2/FGFR4 is above 100 and the FGFR3/FGFR4 was above 100.
On to `C=CC(=O)Nc1cc(-c2cc3c(cn2)CN(c2c(F)c(OC)cc(OC)c2F)C(=O)C32CC2)ccc1CN1CCOCC1` [Example 12, N-(5-(2′-(2,6-difluoro-3,5-dimethoxyphenyl)-3′-oxo-2′,3′-dihydro-1′H-spiro[cyclopropane-1,4′-[2,7]naphthyridine]-6′-yl)-2-(morpholinomethyl)phenyl)acrylamide], for which, under setting [1], the FGFR1/FGFR4 was above 10, the FGFR2/FGFR4 is listed as above 1 and the FGFR3/FGFR4 was above 1. In addition, under “pre-incubated for 4 hours”, the FGFR1/FGFR4 was above 100, the FGFR2/FGFR4 is listed as above 25 and the FGFR3/FGFR4 is recorded as above 10.
For the molecule `C=CC(=O)Nc1cn[nH]c1-c1cc2c(cn1)CN(c1c(F)c(OC)cc(OC)c1F)C(=O)C21CC1` [Example 14, N-(5-(2′-(2,6-difluoro-3,5-dimethoxyphenyl)-3′-oxo-2′,3′-dihydro-1′H-spiro[cyclopropane-1,4′-[2,7]naphthyridine]-6′-yl)-1H-pyrazol-4-yl)acrylamide], where the note is “pre-incubated for 4 hours”, the FGFR1/FGFR4 was above 100, the FGFR2/FGFR4 is on record as above 100 and the FGFR3/FGFR4 is given as above 100.
On to `C=CC(=O)Nc1cnn(CCOC)c1-c1cc2c(cn1)CN(c1c(F)c(OC)cc(OC)c1F)C(=O)C21CC1` [Example 15, N-(5-(2′-(2,6-difluoro-3,5-dimethoxyphenyl)-3′-oxo-2′,3′-dihydro-1′H-spiro[cyclopropane-1,4′-[2,7]naphthyridine]-6′-yl)-1-(2-methoxyethyl)-1H-pyrazol-4-yl)acrylamide], for which, for the setting “pre-incubated for 4 hours”, the FGFR1/FGFR4 is above 100, the FGFR2/FGFR4 was above 100 and the FGFR3/FGFR4 is given as above 100.
Turning to `C=CC(=O)Nc1cnn(CCOCC)c1-c1cc2c(cn1)CN(c1c(F)c(OC)cc(OC)c1F)C(=O)C21CC1` [Example 16, N-(5-(2′-(2,6-difluoro-3,5-dimethoxyphenyl)-3′-oxo-2′,3′-dihydro-1′H-spiro[cyclopropane-1,4′-[2,7]naphthyridine]-6′-yl)-1-(2-ethoxyethyl)-1H-pyrazol-4-yl)acrylamide], under “pre-incubated for 4 hours”, the FGFR1/FGFR4 is given as above 100, the FGFR2/FGFR4 is recorded as above 100 and the FGFR3/FGFR4 is above 100.
With `C=CC(=O)Nc1cnn(CCO)c1-c1cc2c(cn1)CN(c1c(F)c(OC)cc(OC)c1F)C(=O)C21CC1` [Example 17, N-(5-(2′-(2,6-difluoro-3,5-dimethoxyphenyl)-3′-oxo-2′,3′-dihydro-1′H-spiro[cyclopropane-1,4′-[2,7]naphthyridine]-6′-yl)-1-(2-hydroxyethyl)-1H-pyrazol-4-yl)acrylamide], for the setting “pre-incubated for 4 hours”, the FGFR1/FGFR4 is on record as above 100, the FGFR2/FGFR4 was above 100 and the FGFR3/FGFR4 was above 100.
